From doi:10.1101/2024.08.19.608619, “Discovery of potent SARS-CoV-2 nsp3 macrodomain inhibitors uncovers lack of translation to cellular antiviral response” (bioRxiv, 2024)
Like-named read-outs stand apart in the source and are kept apart here.

Assays:
SARS-CoV-2 nsp3-mac1 [1] = molecular target: T1, SARS-CoV-2 nsp3-mac1 (Severe acute respiratory syndrome coronavirus 2, UniProt P0DTD1); assay: biochemical; set-up: SARS-CoV-2 nsp3 macrodomain TR-FRET single point, per cent inhibition, n=2
SARS-CoV-2 nsp3-mac1 [2] = molecular target: T1, SARS-CoV-2 nsp3-mac1; assay: biochemical; type: biochemical; conditions: SARS-CoV-2 nsp3 macrodomain TR-FRET single point
[3] = read-out: perc_inhibition_mean, batch_name=ASAP-0000337-001
[4] = read-out: perc_inhibition_mean, batch_name=ASAP-0000338-001
[5] = read-out: perc_inhibition_mean, batch_name=ASAP-0000339-001
[6] = read-out: perc_inhibition_mean, batch_name=ASAP-0000340-001
[7] = read-out: perc_inhibition_mean, batch_name=ASAP-0000341-001
[8] = read-out: perc_inhibition_mean, batch_name=ASAP-0000342-001
[9] = read-out: perc_inhibition_mean, batch_name=ASAP-0000343-001
[10] = read-out: perc_inhibition_mean, batch_name=ASAP-0000344-001
[11] = read-out: perc_inhibition_mean, batch_name=ASAP-0000345-001
[12] = read-out: perc_inhibition_mean, batch_name=ASAP-0000346-001
[13] = read-out: perc_inhibition_mean, batch_name=ASAP-0000347-001
[14] = read-out: perc_inhibition_mean, batch_name=ASAP-0000348-001
[15] = read-out: perc_inhibition_mean, batch_name=ASAP-0000349-001
[16] = read-out: perc_inhibition_mean, batch_name=ASAP-0000350-001
[17] = read-out: perc_inhibition_mean, batch_name=ASAP-0000351-001
[18] = read-out: perc_inhibition_mean, batch_name=ASAP-0000352-001
[19] = read-out: perc_inhibition_mean, batch_name=ASAP-0000353-001

Work on `O=C(NCC1(O)CCOCC1)c1cnn2ccc(C3CCN(C(=O)c4ccccc4)CC3)cc12` [ASAP-0000337] yielded an inhibition at 49.75 µM (SARS-CoV-2 nsp3-mac1 [1]; [3]) of -3.96%, an inhibition at 99.5 µM (SARS-CoV-2 nsp3-mac1 [1]; [3]) of -1.1% and a perc_inhibition_mean (SARS-CoV-2 nsp3-mac1 [2]; concentration 49.75 uM, n=2) of -3.965%. The perc_inhibition_mean (SARS-CoV-2 nsp3-mac1 [2]; concentration 99.5 uM, n=2) was -1.103%.

`CNC[C@@H]1CCCN1C(=O)c1cnn2ccc(C3CCN(C(=O)c4ccccc4)CC3)cc12` [ASAP-0000338] was tested, and the inhibition at 49.75 µM (SARS-CoV-2 nsp3-mac1 [1]; [4]) was -1.47%, the inhibition at 99.5 µM (SARS-CoV-2 nsp3-mac1 [1]; [4]) was -2.2% and the perc_inhibition_mean (SARS-CoV-2 nsp3-mac1 [2]; concentration 49.75 uM, n=2) was -1.474%. For the same compound, the perc_inhibition_mean (SARS-CoV-2 nsp3-mac1 [2]; concentration 99.5 uM, n=2) was -2.203%.

`CN(Cc1cn(C)nn1)C(=O)c1ccc(NC(=O)Nc2ccccc2)cc1` [ASAP-0000339] gave an inhibition at 49.75 µM (SARS-CoV-2 nsp3-mac1 [1]; [5]) of 0.883%, an inhibition at 99.5 µM (SARS-CoV-2 nsp3-mac1 [1]; [5]) of 0.566% and a perc_inhibition_mean (SARS-CoV-2 nsp3-mac1 [2]; concentration 49.75 uM, n=2) of 0.883%. For the same compound, the perc_inhibition_mean (SARS-CoV-2 nsp3-mac1 [2]; concentration 99.5 uM, n=2) was 0.566%.

With `Cn1cc(Br)c(CNC(=O)c2ccc(NC(=O)Nc3ccccc3)cc2)n1` [ASAP-0000340] the inhibition at 49.75 µM (SARS-CoV-2 nsp3-mac1 [1]; [6]) was 4.31%, the inhibition at 99.5 µM (SARS-CoV-2 nsp3-mac1 [1]; [6]) was 1.2% and the perc_inhibition_mean (SARS-CoV-2 nsp3-mac1 [2]; concentration 49.75 uM, n=2) was 4.308%. The perc_inhibition_mean (SARS-CoV-2 nsp3-mac1 [2]; concentration 99.5 uM, n=2) was 1.196%.

`O=C(NCc1cn[nH]c1)c1cnn2ccc(C3CCN(C(=O)c4ccccc4)CC3)cc12` [ASAP-0000341] was tested, and the inhibition at 49.75 µM (SARS-CoV-2 nsp3-mac1 [1]; [7]) was -2.37%, the inhibition at 99.5 µM (SARS-CoV-2 nsp3-mac1 [1]; [7]) was -4.5% and the perc_inhibition_mean (SARS-CoV-2 nsp3-mac1 [2]; concentration 49.75 uM, n=2) was -2.366%. The perc_inhibition_mean (SARS-CoV-2 nsp3-mac1 [2]; concentration 99.5 uM, n=2) was -4.505%.

In the case of `O=C(Nc1ccccc1)Nc1ccc(C(=O)Nc2cnnc(Cl)c2)cc1` [ASAP-0000342], the inhibition at 49.75 µM (SARS-CoV-2 nsp3-mac1 [1]; [8]) is reported as -1.72%, the inhibition at 99.5 µM (SARS-CoV-2 nsp3-mac1 [1]; [8]) is reported as -0.19% and the perc_inhibition_mean (SARS-CoV-2 nsp3-mac1 [2]; concentration 49.75 uM, n=2) is reported as -1.718%. The perc_inhibition_mean (SARS-CoV-2 nsp3-mac1 [2]; concentration 99.5 uM, n=2) was -0.19%.

`O=C1NC[C@@H](C(=O)N(CCC(=O)N2CCNCC2)Cc2cccc(Cl)c2)O1` [ASAP-0000343] showed an inhibition at 49.75 µM (SARS-CoV-2 nsp3-mac1 [1]; [9]) of 0.125%, an inhibition at 99.5 µM (SARS-CoV-2 nsp3-mac1 [1]; [9]) of 5.24% and a perc_inhibition_mean (SARS-CoV-2 nsp3-mac1 [2]; concentration 49.75 uM, n=2) of 0.125%. The perc_inhibition_mean (SARS-CoV-2 nsp3-mac1 [2]; concentration 99.5 uM, n=2) was 5.241%.

Work on `O=C(CCN(Cc1cccc(Cl)c1)C(=O)[C@H]1C[C@H](O)C1)N1CCNCC1` [ASAP-0000344] yielded an inhibition at 49.75 µM (SARS-CoV-2 nsp3-mac1 [1]; [10]) of -2.13%, an inhibition at 99.5 µM (SARS-CoV-2 nsp3-mac1 [1]; [10]) of -3.77% and a perc_inhibition_mean (SARS-CoV-2 nsp3-mac1 [2]; concentration 49.75 uM, n=2) of -2.133%. It also gave a perc_inhibition_mean (SARS-CoV-2 nsp3-mac1 [2]; concentration 99.5 uM, n=2) of -3.766%.

Work on `O=C(c1cnc[nH]1)N1CCC(c2ccn3ncc(C(=O)N4CCCCC4)c3c2)CC1` [ASAP-0000345] yielded an inhibition at 49.75 µM (SARS-CoV-2 nsp3-mac1 [1]; [11]) of 20.3%, an inhibition at 99.5 µM (SARS-CoV-2 nsp3-mac1 [1]; [11]) of 35.3% and a perc_inhibition_mean (SARS-CoV-2 nsp3-mac1 [2]; concentration 49.75 uM, n=2) of 20.282%. For the same compound, the perc_inhibition_mean (SARS-CoV-2 nsp3-mac1 [2]; concentration 99.5 uM, n=2) was 35.337%.

`C[C@H](NC(=O)c1cnn2ccc(C3CCN(C(=O)c4ccccc4)CC3)cc12)c1cccnc1` [ASAP-0000346] showed an inhibition at 49.75 µM (SARS-CoV-2 nsp3-mac1 [1]; [12]) of -1.84%, an inhibition at 99.5 µM (SARS-CoV-2 nsp3-mac1 [1]; [12]) of -6.21% and a perc_inhibition_mean (SARS-CoV-2 nsp3-mac1 [2]; concentration 49.75 uM, n=2) of -1.839%. The perc_inhibition_mean (SARS-CoV-2 nsp3-mac1 [2]; concentration 99.5 uM, n=2) was -6.209%.

For `O=C(N[C@@H]1CCCNC1=O)c1cnn2ccc(C3CCN(C(=O)c4ccccc4)CC3)cc12` [ASAP-0000347], the inhibition at 49.75 µM (SARS-CoV-2 nsp3-mac1 [1]; [13]) was -3.16%, the inhibition at 99.5 µM (SARS-CoV-2 nsp3-mac1 [1]; [13]) was -4.87% and the perc_inhibition_mean (SARS-CoV-2 nsp3-mac1 [2]; concentration 49.75 uM, n=2) was -3.161%. For the same compound, the perc_inhibition_mean (SARS-CoV-2 nsp3-mac1 [2]; concentration 99.5 uM, n=2) was -4.869%.

With `O=C(NCc1c[nH]nn1)c1cnn2ccc(C3CCN(C(=O)c4ccccc4)CC3)cc12` [ASAP-0000348] the inhibition at 49.75 µM (SARS-CoV-2 nsp3-mac1 [1]; [14]) was -2.86%, the inhibition at 99.5 µM (SARS-CoV-2 nsp3-mac1 [1]; [14]) was 2.17% and the perc_inhibition_mean (SARS-CoV-2 nsp3-mac1 [2]; concentration 49.75 uM, n=2) was -2.856%. It also gave a perc_inhibition_mean (SARS-CoV-2 nsp3-mac1 [2]; concentration 99.5 uM, n=2) of 2.165%.

For `CN1CCC[C@@H]1CNC(=O)c1cnn2ccc(C3CCN(C(=O)c4ccccc4)CC3)cc12` [ASAP-0000349], the inhibition at 49.75 µM (SARS-CoV-2 nsp3-mac1 [1]; [15]) was -4.43%, the inhibition at 99.5 µM (SARS-CoV-2 nsp3-mac1 [1]; [15]) was 1.5% and the perc_inhibition_mean (SARS-CoV-2 nsp3-mac1 [2]; concentration 49.75 uM, n=2) was -4.432%. For the same compound, the perc_inhibition_mean (SARS-CoV-2 nsp3-mac1 [2]; concentration 99.5 uM, n=2) was 1.495%.

With `O=C(N[C@H]1CCC[C@H]1C(=O)O)c1cnn2ccc(C3CCN(C(=O)c4ccccc4)CC3)cc12` [ASAP-0000350] the inhibition at 49.75 µM (SARS-CoV-2 nsp3-mac1 [1]; [16]) was 59.6%, the inhibition at 99.5 µM (SARS-CoV-2 nsp3-mac1 [1]; [16]) was 73.5% and the perc_inhibition_mean (SARS-CoV-2 nsp3-mac1 [2]; concentration 49.75 uM, n=2) was 59.585%. For the same compound, the perc_inhibition_mean (SARS-CoV-2 nsp3-mac1 [2]; concentration 99.5 uM, n=2) was 73.53%.

Compound `Cc1cnc(C(=O)N(CCC(=O)N2CCNCC2)Cc2cccc(Cl)c2)nc1` [ASAP-0000351] has an inhibition at 49.75 µM (SARS-CoV-2 nsp3-mac1 [1]; [17]) of -1.49%, an inhibition at 99.5 µM (SARS-CoV-2 nsp3-mac1 [1]; [17]) of 6.47% and a perc_inhibition_mean (SARS-CoV-2 nsp3-mac1 [2]; concentration 49.75 uM, n=2) of -1.487%. It also gave a perc_inhibition_mean (SARS-CoV-2 nsp3-mac1 [2]; concentration 99.5 uM, n=2) of 6.47%.

`O=C(NCCn1cncn1)c1cnn2ccc(C3CCN(C(=O)c4ccccc4)CC3)cc12` [ASAP-0000352] showed an inhibition at 49.75 µM (SARS-CoV-2 nsp3-mac1 [1]; [18]) of -3.7%, an inhibition at 99.5 µM (SARS-CoV-2 nsp3-mac1 [1]; [18]) of -2.57% and a perc_inhibition_mean (SARS-CoV-2 nsp3-mac1 [2]; concentration 49.75 uM) of -3.7%. It also gave a perc_inhibition_mean (SARS-CoV-2 nsp3-mac1 [2]; concentration 99.5 uM, n=2) of -2.566%.

Compound `O=C(NC[C@@H]1CCCCN1)c1cnn2ccc(C3CCN(C(=O)c4ccccc4)CC3)cc12` [ASAP-0000353] has an inhibition at 49.75 µM (SARS-CoV-2 nsp3-mac1 [1]; [19]) of -5.92%, an inhibition at 99.5 µM (SARS-CoV-2 nsp3-mac1 [1]; [19]) of -2.57% and a perc_inhibition_mean (SARS-CoV-2 nsp3-mac1 [2]; concentration 49.75 uM) of -5.92%. The perc_inhibition_mean (SARS-CoV-2 nsp3-mac1 [2]; concentration 99.5 uM) was -2.573%.
